Measurements as given in ChEMBL document CHEMBL4041466, “Synthesis and evaluation of new benzodioxole-based dithiocarbamate derivatives as potential anticancer agents and hCA-I and hCA-II inhibitors” (Eur J Med Chem, 2017).
Converted amounts (≈) assume the structure as drawn.

Tests used:
A549 = assay: Antiproliferative activity against human A549 cells after 24 hrs by MTT assay; settings: A549, 24 h
C6 = assay: Antiproliferative activity against rat C6 cells after 24 hrs by MTT assay; settings: C6, 24 h

SMILES	IC50 (A549) [µg/mL]	IC50 (C6) [µg/mL]
O=C(CSC(=S)NN1CCN(c2ccccc2)CC1)NCc1ccc2c(c1)OCO2	> 1000	163 (≈ 367 µM)
CC1CCN(NC(=S)SCC(=O)NCc2ccc3c(c2)OCO3)CC1	810 (≈ 2120 µM)	567 (≈ 1490 µM)
CN1CCN(NC(=S)SCC(=O)NCc2ccc3c(c2)OCO3)CC1	> 1000	167 (≈ 436 µM)
O=C(CSC(=S)NN1CCN(c2ncccn2)CC1)NCc1ccc2c(c1)OCO2	833 (≈ 1870 µM)	48.3 (≈ 108 µM)
CCN1CCN(NC(=S)SCC(=O)NCc2ccc3c(c2)OCO3)CC1	850 (≈ 2140 µM)	157 (≈ 395 µM)
O=C(CSC(=S)NN1CCOCC1)NCc1ccc2c(c1)OCO2	700 (≈ 1890 µM)	207 (≈ 559 µM)
COc1ccc(N2CCN(NC(=S)SCC(=O)NCc3ccc4c(c3)OCO4)CC2)cc1	> 1000	58.3 (≈ 123 µM)
O=C(CSC(=S)NN1CCCCC1)NCc1ccc2c(c1)OCO2	875 (≈ 2380 µM)	633 (≈ 1720 µM)
O=C(CSC(=S)NN1CCN(c2ccc([N+](=O)[O-])cc2)CC1)NCc1ccc2c(c1)OCO2	> 1000	23.3 (≈ 47.7 µM)
O=C(CSC(=S)NN1CCSCC1)NCc1ccc2c(c1)OCO2	> 1000	220 (≈ 571 µM)
